Assay results reported in patent publication US20130237478A1, “COMPOSITIONS AND METHODS FOR TREATMENT OF PERIPHERAL VASCULAR DISEASE” (TARIX PHARMACEUTICALS LTD., priority 2012, published 2013).

Legend:
[1] = system: Transient middle cerebral artery occlusion (tMCAO); experiment: Stepping test (forelimb akinesia) after tMCAO stroke; format: in vivo, rats
Procedure: (§1) For the purposes of this example, Transient middle cerebral artery occlusion (tMCAO) procedure Day is defined as “Day 1” in this study. On the day of surgery anesthesia were induced with 4% isoflurane in a mixture of 70% N2O and 30% O2 and maintained with 1.5-2% isoflurane.
The tMCAO procedures were performed according to the method described R. Schmid-Elsaesser et al. Briefly, the right CCA (Common Carotid Artery) was exposed through a midline neck incision and carefully dissected free from surrounding nerves and fascia—from its bifurcation to the base of the skull. The occipital artery branches of the ECA (External Carotid Artery) were then isolated, and these branches were dissected and coagulated. The ECA was dissected further distally and coagulated along with the terminal lingual and maxillary artery branches, which was then divided. The ICA (Internal Carotid Artery) was isolated and carefully separated from the adjacent vagus nerve, and the pterygopalatine artery was ligated close to its origin with a 5-0 nylon suture (SMI, Belgium). Next, a 4-0 silk suture was tied loosely around the mobilized ECA stump, and a 4 cm length of 4-0 monofilament nylon suture (the tip of the suture was blunted by using a flame, and the suture was coated with polylysine, prior to insertion) was inserted through the proximal ECA into the ICA and thence into the circle of Willis, effectively occluding the MCA. The surgical wound was closed and the animals were returned to their cages to recover from anesthesia. […]
Animals were tested for forelimb akinesia in a stepping test (ST). The animal was held with its hind limbs fixed with one hand and the forelimb not to be monitored with the other, while the unrestrained fore-paw touches the table. The number of adjusting steps are counted while the animal is moved sideways along the table surface (85 cm in approximately five seconds), in the forehand & backhand direction for both forelimbs. […]

[2] = system: Transient middle cerebral artery occlusion (tMCAO); experiment: Forelimb placement test after tMCAO stroke; format: in vivo, rats; details: 50 μg/kg by Alzet pump; particularly on Days 21 and 35
Procedure: as §1
(§2) The tMCAO procedures were performed according to the method described R. Schmid-Elsaesser et al. Briefly, the right CCA (Common Carotid Artery) was exposed through a midline neck incision and carefully dissected free from surrounding nerves and fascia—from its bifurcation to the base of the skull. The occipital artery branches of the ECA (External Carotid Artery) were then isolated, and these branches were dissected and coagulated. The ECA was dissected further distally and coagulated along with the terminal lingual and maxillary artery branches, which was then divided. The ICA (Internal Carotid Artery) was isolated and carefully separated from the adjacent vagus nerve, and the pterygopalatine artery was ligated close to its origin with a 5-0 nylon suture (SMI, Belgium). […]
For the forelimb-placing test, the rat was held close to a tabletop and the rat's ability to place the forelimb on the tabletop in response to whisker, visual, tactile, or proprioceptive stimulation was scored (0=normal, 12=maximally impaired). […]

[3] = system: Transient middle cerebral artery occlusion (tMCAO); experiment: Body swing test after tMCAO stroke; format: in vivo, rats; details: 50 μg/kg by Alzet pump
Procedure: as §1
The tMCAO procedures were performed according to the method described R. Schmid-Elsaesser et al. Briefly, the right CCA (Common Carotid Artery) was exposed through a midline neck incision and carefully dissected free from surrounding nerves and fascia—from its bifurcation to the base of the skull. The occipital artery branches of the ECA (External Carotid Artery) were then isolated, and these branches were dissected and coagulated. The ECA was dissected further distally and coagulated along with the terminal lingual and maxillary artery branches, which was then divided. The ICA (Internal Carotid Artery) was isolated and carefully separated from the adjacent vagus nerve, and the pterygopalatine artery was ligated close to its origin with a 5-0 nylon suture (SMI, Belgium). Next, a 4-0 silk suture was tied loosely around the mobilized ECA stump, and a 4 cm length of 4-0 monofilament nylon suture (the tip of the suture was blunted by using a flame, and the suture was coated with polylysine, prior to insertion) was inserted through the proximal ECA into the ICA and thence into the circle of Willis, effectively occluding the MCA. The surgical wound was closed and the animals were returned to their cages to recover from anesthesia. One hour and a half after occlusion rats were re-anesthetized, the monofilament was withdrawn to allow reperfusion, the surgical wound was closed and rats were returned to their cages.
Animals were subjected to a modified Modified Neurological Rating Scale (mNRS) at 24 hours post reperfusion. Only animals with an overall score of ≧10 were included in this study. Animals were allocated into the test groups, according to the mNRS results on day 2, in order to have similar distribution of rats performance between groups. Starting on day 2, 24 hours post-surgery, animals in groups 4, 5 and 7 were implanted subcutaneously with an osmotic Alzet pump and treated with either 500 μg/kg TXA127, 500 μg/kg PanCyte, or 50 μg/kg Linear PanCyte. Animals in groups 2, 3 and 6 received 500 μg/kg or 1,000 μg/kg TXA127 or 500 μg/kg PanCyte, administered subcutaneously via daily injection. Animals in group 1 were treated with a daily subcutaneous injection of a PBS (vehicle).
Each rat was held approximately one inch from the base of its tail. It was then elevated to an inch above a surface of a table. The rat was held in the vertical axis, defined as no more than 10° to either the left or the right side. A swing was recorded whenever the rat moves its head out of the vertical axis to either side. Before attempting another swing, the rat must return to the vertical position for the next swing to be counted. Twenty (20) total swings were counted. A normal rat typically has an equal number of swings to either side. Following focal ischemia, the rat tends to swing to the contralateral side (left side in this case). Body swing scores are expressed as a percentage of […] over total swings.

[4] = system: Transient middle cerebral artery occlusion (tMCAO); experiment: tMCAO stroke model, overall comparison of results; format: in vivo, rats; details: Linear PanCyte dose at least ten times lower than PanCyte
Excerpt: Without wishing to be held to a particular theory, it is possible that angiotensin-(1-7) peptides or functional equivalents, analogs or derivatives, and/or angiotensin-(1-7) receptor agonists such as TXA127, PanCyte and Linear PanCyte act to stimulate blood flow and tissue repair through angiogenesis. Such a mode of action would be extremely beneficial in a critical limb ischemia scenario since these conditions have deprivation of blood supply as a major source of pathology.
as §1
as §2, with “divided.” for “divided. The ICA (Internal Carotid Artery) was isolated and carefully separated from the adjacent vagus nerve, and the pterygopalatine artery was ligated close to its origin with a 5-0 nylon suture (SMI, Belgium).”

[5] = Body weight of mice in hind limb ischemia studies; format: in vivo, Balb/c mice; details: Example 1; 500 μg/kg SC daily; throughout the study (49 days)
Procedure: Body weight of animals was measured before the surgery and once weekly thereafter.
The model and procedures used for this example is the same as for those in Examples 1 and 2, unless otherwise specified.

Molecule	stepping test results compared with TXA127 or PanCyte ([1]; 50 μg/kg by Alzet pump)	stepping test performance vs vehicle ([1]; all experimental conditions (Table 22), by Day 28 post-surgery)	forelimb placement performance compared with other groups [2]	body swing performance ([3]; by Day 21)	body swing performance vs vehicle ([3]; by Day 28)	results in stroke model compared with PanCyte [4]	body weight vs vehicle [5]
Asp^1-Arg^2-Val^3-Ser^4-Ile^5-His^6-Cys^7 (SEQ ID NO:5) (DRVSIHC) [Linear PanCyte]	substantially equivalent to ten times as much TXA127 or PanCyte	significantly improved the performance	best performance	showed improvement	significant improvement in performance	at least as impressive as PanCyte and in many cases even more impressive results	
CC[C@H](C)[C@H](NC(=O)[C@H](Cc1ccc(O)cc1)NC(=O)[C@@H](NC(=O)[C@H](CCCNC(=N)N)NC(=O)[C@@H](N)CC(=O)O)C(C)C)C(=O)N[C@@H](Cc1c[nH]cn1)C(=O)N1CCC[C@H]1C(=O)O [TXA127, Asp^1-Arg^2-Val^3-Tyr^4-Ile^5-His^6-Pro^7 (SEQ ID NO: 1)]							no statistically significant differences
